The text below walks through data of article PMC7892954, “In vivo Pharmacokinetic Drug-Drug Interaction Studies Between Fedratinib and Antifungal Agents Based on a Newly Developed and Validated UPLC/MS-MS Method” (Frontiers in Pharmacology, 2021).

Each structure is given as a SMILES string. Where two headings read alike, the source gives them in different places.

Data set [1] is described as follows: DDI study: pharmacokinetics of fedratinib in rats with or without antifungal drugs. It counts as in vivo, Sprague-Dawley (SD) rats. The conditions noted are these: for AUC(0-inf) / AUC(0-t) / Cmax / Tmax / half-life / CL/F / MRT last / MRT inf: male, Sprague-Dawley, rat, plasma, po, 40 mg/kg, 40 mg/kg fedratinib oral gavage, n = 6, Mean ± SD; for CL/F: read-out: CLz/F (converted); for MRT last: read-out: MRT0→t; for MRT inf: read-out: MRT0→∞. The source says: The UPLC-MS/MS procedures were developed and validated to detect fedratinib concentration in plasma to support an investigational study in healthy male Sprague-Dawley (SD) rats (weighing 200 ± 20 g), which were purchased from Laboratory Animal Center of Wenzhou Medical University (Wenzhou, China). The protocols and procedures of the animal experiment were checked in accordance with the regulations defined by Wenzhou Medical University Animal Care and Use Committee (wydw 2018-0002). Before experiment, rats were housed in the environmentally controlled feeding room, and had free access to the water and food.
After 30 min, each rat was administered 40 mg/kg fedratinib by oral gavage. Then, at the time points of 0, 0.333, 0.667, 1, 2, 4, 6, 9, 12, 24, and 48 h, heparinized 1.5 ml polythene tubes were used to collect the blood samples with approximate volume of 0.3 ml. Subsequently, plasma sample (100 µL) was separated and gained after centrifugation of the whole blood samples at room temperature for 10 min with the speed of 4,000 g, and all the plasma samples were placed and held at −80 °C prior to analysis.
Drug and Statistics (DAS) 2.0 software (Shanghai University of Traditional Chinese Medicine, China) was used to analysis the main pharmacokinetic parameters of fedratinib in rats through non-compartmental approach. The comparisons of the main pharmacokinetic parameters of different groups were conducted in one-way analysis of variance equipped with the Dunnett’s test by Statistical Package for the Social Sciences (SPSS Inc., Chicago, IL, United States) version 17.0 software. In any case, if the value of p was below 0.05, it was deemed to be statistically significant.

Data set [2] in a line: Stability of fedratinib in rat plasma under different conditions (UPLC-MS/MS). The format is in vitro ADME. The conditions noted are these: for Stability RE (%): n = 5. The procedure:
The stability of the analyte in rat plasma under various conditions at LQC and HQC concentration levels (n = 5) was assessed, which were subjected to at room temperature for about 2 h, in the auto-sampler for 6 h at 10 °C prior to analysis, three freeze-thaw cycles (−80 °C to room temperature), and also storage at −80 °C for 21 days. The stability results of this assay in rat plasma should be acceptable when five replicates of QC samples at LQC and HQC concentrations were evaluated and compared with the real concentrations.

The conditions of data set [3]: healthy volunteers, 2015, cited from earlier work.
Details of data set [4]: method as in Ogasawara et al., 2020. To be noted: a strong CYP3A4 inhibitor, ref Ogasawara et al., 2020; cited from earlier work.
Setting [5] is: Group A: control (0.5% CMC-Na) 30 min before.
Setting [6] is: Group B: 20 mg/kg isavuconazole 30 min before.
[7] abbreviates: Group C: 20 mg/kg posaconazole 30 min before.
Setting [8] is: Group D: 20 mg/kg fluconazole 30 min before.
Where [9] appears, read: Group E: 20 mg/kg itraconazole 30 min before.
[10] abbreviates: 20 mg/kg antifungal 30 min before 40 mg/kg fedratinib oral.

On to `Cc1cnc(Nc2ccc(OCCN3CCCC3)cc2)nc1Nc1cccc(S(=O)(=O)NC(C)(C)C)c1` [Fedratinib], for which, in data set [1] (fedratinib co-administrated with posaconazole (Group C)), the “Key pharmacokinetic parameters (AUC0→t, AUC0→∞, MRT0→t, MRT0→∞, t1/2, Tmax, CLz/F, Cmax) compared with control Group A” value is listed as “no significant differences”. The AUC(0-inf) in data set [1] (setting [5]) is 2150 ± 396 ng·h/mL; in data set [1] (setting [6]) it was 2720 ± 427 ng·h/mL; in data set [1] (setting [7]), 2510 ± 260 ng·h/mL; in data set [1] (setting [8]), 3890 ± 680 ng·h/mL; in data set [1] (setting [9]) it was 3320 ± 383 ng·h/mL. The AUC(0-t) turned out to be 2010 ± 309 ng·h/mL in data set [1] (setting [5]); 2590 ± 406 ng·h/mL in data set [1] (setting [6]); 2320 ± 202 ng·h/mL in data set [1] (setting [7]); 3800 ± 653 ng·h/mL in data set [1] (setting [8]); 3130 ± 317 ng·h/mL in data set [1] (setting [9]). The highest concentration (Cmax) in data set [1] (setting [5]) is 101 ± 12.9 ng/mL; in data set [1] (setting [6]), 123 ± 17.2 ng/mL; in data set [1] (setting [7]), 98.1 ± 16.6 ng/mL; in data set [1] (setting [8]) it was 232 ± 33.1 ng/mL; in data set [1] (setting [9]) it was 187 ± 22.2 ng/mL. Besides, the time to peak (Tmax) in data set [1] (setting [5]) was 5.43 ± 0.98 h; in data set [1] (setting [6]), 6.4 ± 1.34 h; in data set [1] (setting [7]), 6 ± 1.08 h; in data set [1] (setting [8]), 7.8 ± 1.64 h; in data set [1] (setting [9]), 7.2 ± 1.64 h. Moreover, the half-life was 11.1 ± 2.72 h in data set [1] (setting [5]); 11.1 ± 2.9 h in data set [1] (setting [6]); 11.8 ± 2.9 h in data set [1] (setting [7]); 10.9 ± 2.38 h in data set [1] (setting [8]); 10.2 ± 3.39 h in data set [1] (setting [9]). Further, the CL/F was 320 mL/min/kg in data set [1] (setting [5]); 247 mL/min/kg in data set [1] (setting [6]); 277 mL/min/kg in data set [1] (setting [7]); 176 mL/min/kg in data set [1] (setting [8]); 204 mL/min/kg in data set [1] (setting [9]). The MRT last was determined as 14.4 ± 1.41 h in data set [1] (setting [5]); 14.9 ± 0.87 h in data set [1] (setting [6]); 14.3 ± 1.21 h in data set [1] (setting [7]); 13.4 ± 1.3 h in data set [1] (setting [8]); 14.5 ± 1.95 h in data set [1] (setting [9]). For the same molecule, the MRT inf worked out at 15.6 ± 1.65 h in data set [1] (setting [5]); 15.5 ± 1.34 h in data set [1] (setting [6]); 14.6 ± 1.32 h in data set [1] (setting [7]); 13.9 ± 1.36 h in data set [1] (setting [8]); 15.2 ± 2.1 h in data set [1] (setting [9]). For the same molecule, the “Stability RE (%)” value in data set [2] (1.5 ng/ml, Auto-sampler 10°C, 6 h) is listed as 8.3%; in data set [2] (1.5 ng/ml, Room temperature, 2 h), 14.1%; in data set [2] (1.5 ng/ml, Three freeze-thaw (−80 °C to room temperature)), −4.6%; in data set [2] (1.5 ng/ml, −80°C, 21 days), 2.7%; in data set [2] (400 ng/ml, Auto-sampler 10°C, 6 h), 11.4%; in data set [2] (400 ng/ml, Room temperature, 2 h), 10.3%. In addition, the “Stability RE (%)” value in data set [2] (400 ng/ml, Three freeze-thaw (−80 °C to room temperature)) stood at 12.5%; in data set [2] (400 ng/ml, −80°C, 21 days), 14.2%. In addition, in data set [2] (LQC and HQC, all four storage conditions), the “Deviation from nominal concentrations (stability)” value was below 15%. Also, the “Impact of pantoprazole on the pharmacokinetics of fedratinib” value in data set [3] (40 mg pantoprazole once daily with a single dose of 500 mg fedratinib, ref Xu et al.) is “no significantly impact”. Also, in data set [3] (ref Zhang et al.), the “Effect of intake of food on pharmacokinetics and bioavailability of fedratinib” value was “slightly affect”. Also, the “Effect of ketoconazole on systemic exposure of fedratinib” value in data set [4] is “increases the systemic exposure of fedratinib”.
Take `C[C@@H](c1nc(-c2ccc(C#N)cc2)cs1)[C@](O)(Cn1cncn1)c1cc(F)ccc1F` [isavuconazole]: in data set [1] (setting [10]), the “Inhibitory effect on fedratinib metabolism” value is reported as “inhibitory effect on fedratinib metabolism to a certain extent” and the “Order of inhibitory effect on fedratinib metabolism” value is listed as “fluconazole > itraconazole > isavuconazole > posaconazole”.
As to `CCC(C)n1ncn(-c2ccc(N3CCN(c4ccc(OCC5COC(Cn6cncn6)(c6ccc(Cl)cc6Cl)O5)cc4)CC3)cc2)c1=O` (stereo not drawn) [itraconazole], the “Order of inhibitory effect on fedratinib metabolism” value in data set [1] (setting [10]) is reported as “fluconazole > itraconazole > isavuconazole > posaconazole”.
Same read-out and setting: next, `CC[C@@H]([C@H](C)O)n1ncn(-c2ccc(N3CCN(c4ccc(OC[C@@H]5CO[C@@](Cn6cncn6)(c6ccc(F)cc6F)C5)cc4)CC3)cc2)c1=O` [posaconazole]: “fluconazole > itraconazole > isavuconazole > posaconazole”.

As a reminder, the AUC(0-inf) is the area under the concentration-time curve extrapolated to infinity. A word on the AUC(0-t): it is exposure summed from dosing to a finite time, without extrapolation to infinity. As usually defined, the Cmax is the peak of the concentration-time curve. One may read the Tmax as the time from dosing to the highest level. In general, half-life refers to the time in which the quantity being followed falls by half.
